Here are results for 31 compounds from patent US8211935B2, “Heterocyclic derivatives for modulation of calcium channels” (Vertex Pharmaceuticals Incorporated, priority 2004, dated 2012).

SMILES strings stand for the structures.

The conditions of assay [1]: neuropathic pain; cited from earlier work.
Another assay has as its target T1, CaV2.2 (Homo sapiens, UniProt Q00975).
T1 construct: expressed in transfected cells; host or cells: HEK293
The assay is described as follows: VIPR optical membrane potential assay with electrical stimulation. Format: cell-based. The following applies: Table 3, biological assay data; read-out: IC50. The procedure, abridged: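 HEK293 cells stably expressing CaV2.2, stained with CC2-DMPE (10 μM final) and oxonol voltage-sensitive dyes, compound added with BaCl2. Membrane potential response evoked by 3-5 s electrical stimulation. Read as background-subtracted 460/580 nm emission ratio, response R=Rf/Ri, normalized to mibefradil positive and no-drug negative controls.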

T1 sequence (Q00975 whole entry): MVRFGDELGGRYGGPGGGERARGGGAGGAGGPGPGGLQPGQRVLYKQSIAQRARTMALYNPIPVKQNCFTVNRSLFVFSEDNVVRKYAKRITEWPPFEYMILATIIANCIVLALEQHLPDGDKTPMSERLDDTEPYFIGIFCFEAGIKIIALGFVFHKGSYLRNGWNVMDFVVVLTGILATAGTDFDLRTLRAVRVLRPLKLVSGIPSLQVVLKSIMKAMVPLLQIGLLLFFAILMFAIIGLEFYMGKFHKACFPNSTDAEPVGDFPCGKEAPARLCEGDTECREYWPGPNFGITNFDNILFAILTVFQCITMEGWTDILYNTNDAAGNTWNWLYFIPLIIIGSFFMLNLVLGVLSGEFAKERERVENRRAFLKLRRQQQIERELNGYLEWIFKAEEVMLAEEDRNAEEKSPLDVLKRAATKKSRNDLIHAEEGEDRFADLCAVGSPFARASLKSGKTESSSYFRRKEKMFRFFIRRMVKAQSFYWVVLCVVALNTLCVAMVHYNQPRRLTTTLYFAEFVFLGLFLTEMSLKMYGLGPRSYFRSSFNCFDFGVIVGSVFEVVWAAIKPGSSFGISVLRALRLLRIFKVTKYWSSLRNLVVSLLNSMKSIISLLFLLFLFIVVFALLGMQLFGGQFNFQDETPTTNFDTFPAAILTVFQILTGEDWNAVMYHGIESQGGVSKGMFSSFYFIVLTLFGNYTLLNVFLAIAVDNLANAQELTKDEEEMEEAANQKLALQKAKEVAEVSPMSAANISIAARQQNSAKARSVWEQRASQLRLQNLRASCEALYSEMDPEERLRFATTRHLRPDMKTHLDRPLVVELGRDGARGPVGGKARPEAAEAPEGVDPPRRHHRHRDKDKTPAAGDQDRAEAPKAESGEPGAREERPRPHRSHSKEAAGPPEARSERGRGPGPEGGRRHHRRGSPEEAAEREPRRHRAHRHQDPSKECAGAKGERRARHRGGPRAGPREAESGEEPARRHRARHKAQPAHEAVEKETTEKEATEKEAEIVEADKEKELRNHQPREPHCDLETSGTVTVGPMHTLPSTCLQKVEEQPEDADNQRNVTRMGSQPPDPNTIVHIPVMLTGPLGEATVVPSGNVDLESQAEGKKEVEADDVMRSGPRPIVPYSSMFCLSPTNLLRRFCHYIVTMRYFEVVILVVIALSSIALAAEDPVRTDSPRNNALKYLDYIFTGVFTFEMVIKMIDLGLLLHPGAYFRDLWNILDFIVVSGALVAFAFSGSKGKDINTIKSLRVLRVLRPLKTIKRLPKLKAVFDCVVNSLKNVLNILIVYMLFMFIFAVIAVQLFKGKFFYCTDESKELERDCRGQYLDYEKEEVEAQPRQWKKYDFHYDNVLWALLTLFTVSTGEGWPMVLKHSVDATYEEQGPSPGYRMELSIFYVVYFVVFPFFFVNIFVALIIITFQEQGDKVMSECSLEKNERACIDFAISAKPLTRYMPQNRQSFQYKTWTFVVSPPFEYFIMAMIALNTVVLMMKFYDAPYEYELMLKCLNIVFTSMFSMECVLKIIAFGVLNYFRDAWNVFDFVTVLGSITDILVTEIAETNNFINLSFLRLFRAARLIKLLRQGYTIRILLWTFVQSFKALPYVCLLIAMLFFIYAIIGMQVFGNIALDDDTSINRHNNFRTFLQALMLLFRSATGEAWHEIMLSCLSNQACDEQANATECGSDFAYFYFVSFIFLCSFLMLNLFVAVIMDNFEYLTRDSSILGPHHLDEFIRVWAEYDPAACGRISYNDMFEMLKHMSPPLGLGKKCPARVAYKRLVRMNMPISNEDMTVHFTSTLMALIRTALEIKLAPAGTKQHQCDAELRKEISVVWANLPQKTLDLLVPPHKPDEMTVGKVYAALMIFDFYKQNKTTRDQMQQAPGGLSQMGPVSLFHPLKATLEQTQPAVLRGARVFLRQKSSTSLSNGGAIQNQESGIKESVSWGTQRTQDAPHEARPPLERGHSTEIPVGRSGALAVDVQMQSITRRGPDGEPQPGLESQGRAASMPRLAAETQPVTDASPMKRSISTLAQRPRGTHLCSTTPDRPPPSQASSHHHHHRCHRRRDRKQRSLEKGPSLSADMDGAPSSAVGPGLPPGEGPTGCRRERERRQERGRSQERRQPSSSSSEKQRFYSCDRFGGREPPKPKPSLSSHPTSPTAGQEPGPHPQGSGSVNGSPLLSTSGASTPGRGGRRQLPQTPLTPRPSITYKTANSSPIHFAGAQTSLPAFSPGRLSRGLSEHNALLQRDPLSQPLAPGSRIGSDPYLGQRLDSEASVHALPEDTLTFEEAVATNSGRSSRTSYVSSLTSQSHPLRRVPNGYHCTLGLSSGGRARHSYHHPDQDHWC
T1 sequence (P54284 whole entry partner): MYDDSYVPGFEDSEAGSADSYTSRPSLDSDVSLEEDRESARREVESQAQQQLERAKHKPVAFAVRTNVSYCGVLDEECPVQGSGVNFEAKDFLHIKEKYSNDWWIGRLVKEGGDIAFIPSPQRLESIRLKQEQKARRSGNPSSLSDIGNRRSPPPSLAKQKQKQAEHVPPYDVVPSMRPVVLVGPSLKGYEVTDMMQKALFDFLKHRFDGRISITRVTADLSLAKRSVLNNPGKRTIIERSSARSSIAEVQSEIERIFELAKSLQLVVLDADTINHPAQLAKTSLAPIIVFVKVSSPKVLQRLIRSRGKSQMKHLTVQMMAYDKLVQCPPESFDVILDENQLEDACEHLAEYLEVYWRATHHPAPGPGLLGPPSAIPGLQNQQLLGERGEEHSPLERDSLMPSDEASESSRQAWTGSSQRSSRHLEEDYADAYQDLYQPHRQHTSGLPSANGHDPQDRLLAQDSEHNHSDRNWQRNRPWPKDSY
T1 sequence (P54289 25-946 partner limits assumed): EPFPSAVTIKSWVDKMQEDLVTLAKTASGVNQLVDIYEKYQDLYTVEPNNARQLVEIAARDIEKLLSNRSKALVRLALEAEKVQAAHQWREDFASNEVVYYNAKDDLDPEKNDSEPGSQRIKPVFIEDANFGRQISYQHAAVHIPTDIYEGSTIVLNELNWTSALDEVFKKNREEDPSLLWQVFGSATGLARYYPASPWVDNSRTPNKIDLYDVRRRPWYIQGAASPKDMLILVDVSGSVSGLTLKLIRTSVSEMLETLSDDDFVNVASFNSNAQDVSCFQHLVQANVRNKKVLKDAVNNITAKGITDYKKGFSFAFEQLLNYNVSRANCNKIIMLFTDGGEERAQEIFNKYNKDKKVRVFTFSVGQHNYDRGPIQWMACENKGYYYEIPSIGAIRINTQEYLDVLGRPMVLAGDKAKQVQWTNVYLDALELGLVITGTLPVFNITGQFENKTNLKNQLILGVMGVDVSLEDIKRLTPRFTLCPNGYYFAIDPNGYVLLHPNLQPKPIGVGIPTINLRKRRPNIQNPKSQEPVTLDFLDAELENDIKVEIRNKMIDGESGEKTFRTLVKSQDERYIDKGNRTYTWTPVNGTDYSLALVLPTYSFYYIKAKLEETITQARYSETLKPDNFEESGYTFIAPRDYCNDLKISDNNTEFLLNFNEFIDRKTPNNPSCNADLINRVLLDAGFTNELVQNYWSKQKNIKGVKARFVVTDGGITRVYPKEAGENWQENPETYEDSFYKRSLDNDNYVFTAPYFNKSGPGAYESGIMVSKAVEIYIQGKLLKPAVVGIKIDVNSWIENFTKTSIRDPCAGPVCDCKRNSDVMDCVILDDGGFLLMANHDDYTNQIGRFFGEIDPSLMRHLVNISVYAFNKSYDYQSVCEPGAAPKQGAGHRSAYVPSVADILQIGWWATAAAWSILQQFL
T1 sequence (P54289 947-1103 partner limits assumed): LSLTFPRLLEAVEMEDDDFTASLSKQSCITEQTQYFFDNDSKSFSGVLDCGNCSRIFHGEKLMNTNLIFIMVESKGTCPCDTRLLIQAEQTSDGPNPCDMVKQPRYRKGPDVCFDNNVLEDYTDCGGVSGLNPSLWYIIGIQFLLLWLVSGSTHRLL

Regarding `NCC1(CC(=O)O)CCCCC1` [Gabapentin], in assay [1], the “patients in whom the drug works” value is 60%. For the compound `Cc1c(C(=O)NCc2ccccc2)oc2ccc(S(=O)(=O)N3CC(C)CC(C)C3)cc12` (stereo not shown) [compound 441], the IC50 at CaV2.2 was under 5 µM. For `CNC(=O)c1[nH]c2ccc(S(=O)(=O)N3CCCCCC3)cc2c1C` [compound 442], at CaV2.2, the IC50 lay within 5 to 20 µM. `Cc1c(C(=O)N(C(C)C)C(C)C)oc2ccc(S(=O)(=O)N3CCC(C)CC3)cc12` [compound 443]: the IC50 on CaV2.2 lay within 5 to 20 µM.

Take `CCNC(=O)c1oc2ccc(S(=O)(=O)N(CC)CC)cc2c1C` [compound 444]: the IC50 at CaV2.2 was under 20 µM. Consider `Cc1c(C(=O)NCCc2ccccc2)oc2ccc(S(=O)(=O)N3CCCC(C)C3)cc12` (stereo not shown) [compound 445], for which, at CaV2.2, the IC50 is under 5 µM. Still for that read-out and setting: for `Cc1c(C(=O)NC2CCCCC2)oc2ccc(S(=O)(=O)N3CCCCCC3)cc12` [compound 446] the value was 5 to 20 µM. On the same count and under the same terms, for `Cc1c(C(=O)NC2CC2)oc2ccc(S(=O)(=O)Nc3nccs3)cc12` [compound 447] the value was under 20 µM. Still for that read-out and setting: next, `CC1CCN(S(=O)(=O)c2ccc3[nH]c(C(=O)NC4CCCCC4)cc3c2)CC1` [compound 448]: 5 to 20 µM. In the case of `Cc1c(C(=O)N2CC(C)OC(C)C2)oc2ccc(S(=O)(=O)N3CCC(C)CC3)cc12` (stereo not shown) [compound 449], the IC50 on CaV2.2 lay in the range of 5 to 20 µM. For the compound `Cc1c(C(=O)NC(C)C)[nH]c2ccc(S(=O)(=O)N3CC(C)CC(C)C3)cc12` (stereo not shown) [compound 450], on CaV2.2, the IC50 fell in the range of 5 to 20 µM. For `Cc1c(C(=O)N2CCCCC2)oc2ccc(S(=O)(=O)N3CC(C)CC(C)C3)cc12` (stereo not shown) [compound 451], at CaV2.2, the IC50 was under 5 µM. For `CC1CC(C)CN(S(=O)(=O)c2ccc3c(c2)cc(C(=O)NCc2ccccc2)n3S(=O)(=O)c2ccccc2)C1` (stereo not shown) [compound 452], the IC50 at CaV2.2 is under 5 µM. The same measure, in the same setting: for `Cc1c(C(=O)NC2CC2)oc2ccc(S(=O)(=O)Nc3cccnc3)cc12` [compound 453] the value was under 20 µM; for `CNC(=O)c1cc2cc(S(=O)(=O)N3CC(C)CC(C)C3)ccc2o1` (stereo not shown) [compound 454], under 5 µM.

Regarding `CC1CC(C)CN(S(=O)(=O)c2ccc3oc(C(=O)NC4CCCCC4)cc3c2)C1` (stereo not shown) [compound 455], the IC50 at CaV2.2 is under 5 µM.

Turning to `CC1CCN(S(=O)(=O)c2ccc3oc(C(=O)NCC4CCCO4)cc3c2)CC1` (stereo not shown) [compound 456], the IC50 at CaV2.2 fell in the range of 5 to 20 µM. For `Cc1c(C(=O)N2CCCC2)[nH]c2ccc(S(=O)(=O)N3CCC(C)CC3)cc12` [compound 457], the IC50 at CaV2.2 lay within 5 to 20 µM.

`CCN(CC)S(=O)(=O)c1ccc2oc(C(=O)NCC3CCOCC3)c(C)c2c1` [compound 458]: the IC50 at CaV2.2 was under 20 µM. On the same count and under the same terms, for `Cc1c(C(=O)NC2CCCCC2)oc2ccc(S(=O)(=O)N3CCCCC3)cc12` [compound 459] the value was 5 to 20 µM; for `Cc1c(C(=O)N2CCCCC2)oc2ccc(S(=O)(=O)N3CCC(C)CC3)cc12` [compound 460], 5 to 20 µM. For `CC1CC(C)CN(S(=O)(=O)c2ccc3c(c2)cc(C(=O)N(C)C)n3C)C1` (stereo not shown) [compound 461], the IC50 on CaV2.2 was under 5 µM. `Cc1c(C(=O)N2CCc3ccccc3C2)oc2ccc(S(=O)(=O)N3CCCCC3)cc12` [compound 462]: the concentration for half-maximal inhibition (IC50) at CaV2.2 was under 5 µM. For `CCCN(CC1CC1)C(=O)c1cc2cc(S(=O)(=O)N3CC(C)CC(C)C3)ccc2n1C` (stereo not shown) [compound 463], the IC50 at CaV2.2 is under 5 µM. As for `Cc1c(C(=O)N(C)Cc2ccccc2)oc2ccc(S(=O)(=O)N3CCC(C)CC3)cc12` [compound 464], the IC50 at CaV2.2 is under 5 µM. Still for that read-out and setting: next, `Cc1c(C(=O)NC2CCCCC2)oc2ccc(S(=O)(=O)N3CCC(C)CC3)cc12` [compound 465]: 5 to 20 µM.

In the case of `Cc1c(C(=O)N2CCC(C)CC2)oc2ccc(S(=O)(=O)N3CC(C)CC(C)C3)cc12` (stereo not shown) [compound 466], the IC50 at CaV2.2 is under 5 µM. The same measure, in the same setting: for `Cc1c(C(=O)NCCC2CCOCC2)oc2ccc(S(=O)(=O)N3CCCC(C)C3)cc12` (stereo not shown) [compound 467] the value was under 5 µM.

Consider `Cc1c(C(=O)N2CCCCC2)oc2ccc(S(=O)(=O)N3CCCCCC3)cc12` [compound 468], for which the IC50 on CaV2.2 lay in the range of 5 to 20 µM. Turning to `CCNC(=O)c1cc2cc(S(=O)(=O)N3CC(C)CC(C)C3)ccc2o1` (stereo not shown) [compound 469], the IC50 at CaV2.2 is under 5 µM. As to `CC1CC(C)CN(S(=O)(=O)c2ccc3c(c2)cc(C(=O)N2CCCCC2)n3S(=O)(=O)C(C)C)C1` (stereo not shown) [compound 470], at CaV2.2, the IC50 was 5 to 20 µM.
